N#Cc1ccc2c(c1)OCO2
solubility (mole fraction)
Settings | 278.15 K | 283.15 K | 288.15 K | 293.15 K | 298.15 K | 303.15 K | 308.15 K | 313.15 K | 318.15 K | 323.15 K
in 1,4-dioxane | – | – | 0.174 | 0.197 | 0.221 | 0.256 | 0.283 | 0.325 | 0.358 | 0.406
in 2-methoxyethanol | 0.0495 | 0.0606 | 0.0722 | 0.0849 | 0.101 | 0.119 | 0.137 | 0.16 | 0.192 | 0.221
in DMF | 0.172 | 0.193 | 0.212 | 0.239 | 0.264 | 0.293 | 0.32 | 0.36 | 0.39 | 0.433
in acetone | 0.101 | 0.118 | 0.136 | 0.158 | 0.181 | 0.207 | 0.237 | 0.269 | 0.307 | 0.349
in acetonitrile | 0.0673 | 0.0811 | 0.0999 | 0.12 | 0.143 | 0.173 | 0.203 | 0.243 | 0.283 | 0.33
in ethanol | 0.00686 | 0.00878 | 0.0111 | 0.0133 | 0.0166 | 0.0214 | 0.0266 | 0.034 | 0.0435 | 0.0548
in ethyl acetate | 0.0892 | 0.102 | 0.118 | 0.14 | 0.166 | 0.187 | 0.217 | 0.247 | 0.282 | 0.322
in isopropanol | 0.00473 | 0.00606 | 0.00772 | 0.00933 | 0.0127 | 0.0168 | 0.0202 | 0.0268 | 0.0338 | 0.0445
in isopropyl acetate | 0.0657 | 0.0784 | 0.0948 | 0.112 | 0.13 | 0.155 | 0.179 | 0.211 | 0.243 | 0.277
in methanol | 0.00823 | 0.0104 | 0.0123 | 0.0157 | 0.0192 | 0.024 | 0.031 | 0.0387 | 0.0495 | 0.0617
in methyl acetate | 0.102 | 0.118 | 0.137 | 0.16 | 0.184 | 0.21 | 0.24 | 0.274 | 0.31 | 0.353
in n-propanol | 0.00603 | 0.00758 | 0.00949 | 0.0122 | 0.0159 | 0.02 | 0.0255 | 0.0329 | 0.0433 | 0.0573
in n-propyl acetate | 0.0785 | 0.0928 | 0.113 | 0.128 | 0.149 | 0.176 | 0.204 | 0.235 | 0.27 | 0.31
